Legend:
BMI-1 = BMI-1 (Homo sapiens, UniProt P35226); conditions: cell-free assay; cited from earlier work
[1] = phase 1 study; cited from earlier work
HNSCC tumor cells = experiment: Anti-active caspase-3 (Ac-casp3) immunostaining of apoptosis in HNSCC; assay type: in vivo, mouse; conditions: given concurrently with PTC209 plus anti-PD1
Method: (§1) The immunocomplexes were detected and visualized using related secondary antibodies conjugated with Cy2 or Cy3 (Jackson ImmunoResearch Laboratories). […] At least three sections from each HNSCC lesions were immunostained and analyzed. Tumor cells (>150) and CD8+, Ac-casp3+ and Tomato^+ cells of these tumor cell areas were counted manually in each section. The percentage of CD8+, Ac-casp3^+ and Tomato^+ cells were calculated by dividing those cells with tumor cells and averaged from the sections.

BMI1+ CSCs [2] = experiment: BMI1 immunostaining of CSCs in HNSCC; assay type: in vivo, mouse; conditions: FIG. 16C-16D
CD8+ T cells = experiment: Immunostaining of CD8+ T cells in HNSCC; assay type: in vivo, mouse
Method: as §1

HNSCC = experiment: 4NQO mouse model of HNSCC: lesion area, histology, invasion grade
Method: Bmi1^CreER (JAX:010531) and R26^tdTomato (JAX:007908) mouse strains were cross-mated to generate Bmi1^CreER;R26^tdTomato. K14^CreER (JAX:005107) and Bmi1^flox/flox (JAX: 028974) mouse strains were cross-mated to generate K14^CreER; Bmi1^flox/flox. […] For induction of HNSCC, six-week-old mice were treated with drinking water containing 50 ug/ml 4NQO (Santa Cruz, Cat #256815) for 16 weeks and then given normal drinking water for tumor formation and lymph node metastasis. For lineage tracing and Bmi1 knock out studies, mice were intraperitoneally injected with tamoxifen (9 mg per 40 g body weight; Sigma-Aldrich, Cat #T5648) to activate Cre.
Cisplatin (Sigma-Aldrich, Cat #479306) was dissolved in saline. PTC209 (MedChem Express, Cat #HY-15888) was dissolved in 14% DMSO, 36% polyethylene glycol 400 (Sigma-Aldrich, Cat #202304) and 50% polypropylene glycol (Sigma-Aldrich Cat #4347). […]
Briefly, mice were sacrificed, and tongues and cervical lymph nodes were harvested immediately and the lesion surface areas were measured. […] The SCC number was counted and areas were measured as described before (Chen et al., 2017). The HNSCC invasiveness was scored based on the following criteria: showing signs of normal or epithelial dysplasia appearance (grade 1); distinct invasion, unclearness of basement membrane, drop and diffuse infiltration into the superficial portion of the muscle layer (grade 2); loss of the basement membrane, extensive invasion into deep muscle layer (grade 3). To assess lymph node metastasis, the sections of cervical lymph nodes were immunostained with anti-PCK antibodies which specifically detected epithelial tumor cells in lymph nodes (Santa Cruz, Cat #sc-8018). The percentage of lymph nodes with metastasis and their metastatic areas were measured.

[3] = tested on: HNSCC lymph node metastasis; experiment: Cervical lymph node metastasis by anti-PCK immunostaining; assay type: in vivo, mouse; conditions: given concurrently with PTC209 plus anti-PD1
Method: Tumor growth and cervical lymph node metastasis were examined as described before (Chen et al., 2017). Briefly, mice were sacrificed, and tongues and cervical lymph nodes were harvested immediately and the lesion surface areas were measured. For histological analysis and immunostaining, longitudinally cut tongues (dorsal/ventral) and intact lymph nodes were fixed overnight in 10% buffered formalin and paraffin-embedded. Tissue blocks were cut into 10-15 sections in 4 μm thickness and stained with hematoxylin and eosin (H&E). The SCC number was counted and areas were measured as described before (Chen et al., 2017). […] To assess lymph node metastasis, the sections of cervical lymph nodes were immunostained with anti-PCK antibodies which specifically detected epithelial tumor cells in lymph nodes (Santa Cruz, Cat #sc-8018). The percentage of lymph nodes with metastasis and their metastatic areas were measured.

BMI1+ CSCs [4] = experiment: In vivo labeling and lineage tracing of Tomato+ BMI1+ CSCs; design: species or system mouse; conditions: tamoxifen 1 day prior to sacrifice, treated 4 weeks
Method: as §1

BMI1 [5] = experiment: BMI1 expression in HNSCC tumors by immunostaining and Western blot; assay type: in vivo, mouse; conditions: HNSCC, FIG. 18
Method: (§2) Cells were lysed using the radioimmunoprecipitation assay (RIPA) buffer (Sigma-Aldrich, Cat #R0278) added with a cocktail of protease inhibitors (Thermo Fisher Scientific, Cat ##78430) and phosphatase inhibitors (Sigma-Aldrich, Cat #4906845001). Protein extracts were resolved on a 10% or 15% SDS polyacrylamide gel and then transferred to a polyvinylidene difluoride membrane. Membranes were blocked with 5% milk for 1 h and incubated with primary antibodies overnight at 4° C. […] The signals were detected using the Clarity Western ECL kit (Bio-Rad, Cat #1705060). […] After treatment, supernatants were collected, and the protein levels of CCL5, CXCL9, CXCL10 and CXCL11 were measured with ELISA (R&D Systems, Cat #DRN00B, DCX900, DIP100, DCX110) according to the manufacturer's instructions.

[6] = tested on: cGAS-STING-IRF3 signaling; experiment: Western blot of phosphorylated STING, TBK1, IRF3; assay type: cell-based, human
Method: (§3) Cells were lysed using the radioimmunoprecipitation assay (RIPA) buffer (Sigma-Aldrich, Cat #R0278) added with a cocktail of protease inhibitors (Thermo Fisher Scientific, Cat ##78430) and phosphatase inhibitors (Sigma-Aldrich, Cat #4906845001). Protein extracts were resolved on a 10% or 15% SDS polyacrylamide gel and then transferred to a polyvinylidene difluoride membrane. Membranes were blocked with 5% milk for 1 h and incubated with primary antibodies overnight at 4° C. Primary antibodies used in this study were: anti-phospho-STING (Ser366) (1:1,000; Cell Signaling Technology, Cat #19781), anti-STING (1:1,000; Cell Signaling Technology, Cat #13647), anti-phospho-TBK1 (Ser172) (1:1,000; Cell Signaling Technology, Cat #5483), anti-TBK1 (1:1,000; Cell Signaling Technology, Cat #3504), anti-phospho-IRF3 (Ser396) (1:1,000; Cell Signaling Technology, Cat #29047), anti-IRF3 (1:1,000; Cell Signaling Technology, Cat #4302), anti-BMI1 (1:1,000; Cell Signaling Technology, Cat #6964), anti-Ubiquityl-Histone H2A (Lys119) (1:1000, Cell Signaling Technology, Cat #8240), anti-phospho Histone H2A.X (Ser139) (1:1000; Cell Signaling Technology, Cat #9718), and anti-GAPDH (1:1000; Cell Signaling Technology, Cat #5174), anti-Histone H3 (1:2,000; Cell Signaling Technology, Cat #4499). The signals were detected using the Clarity Western ECL kit (Bio-Rad, Cat #1705060). To measure the protein levels of CCL5, CXCL9, CXCL10 and CXCL11, cells were treated with PTC209 or shBMI1 knockdown for 48 hr. After treatment, supernatants were collected, and the protein levels of CCL5, CXCL9, CXCL10 and CXCL11 were measured with ELISA (R&D Systems, Cat #DRN00B, DCX900, DIP100, DCX110) according to the manufacturer's instructions.

IFNβ = experiment: qRT-PCR of IFNβ mRNA; assay type: cell-based, human; conditions: SCC23 cells
Method: (§4) For qRT-PCR, total RNA was prepared using TRIzol reagent (Thermo Fisher Scientific Cat #15596026), and 1 μg of RNA was reversely transcribed with random primer (Thermo Fisher Scientific Cat #48190011), dNTP mix (Thermo Fisher Scientific, Cat #18427013), and M-MuLV Reverse Transcriptase (New England Biolabs, Cat #M0253L). The levels of mRNA were […] measured using a SYBRGreen supermix (Bio-Rad, Cat #1708880). GAPDH was used as an internal control.

[7] = tested on: promoters of CCL5, CXCL9, CXCL10 and CXCL11; experiment: ChIP-qPCR on chemokine promoters; assay type: cell-based, human; conditions: SCC23 cells
Method: ChIP-qPCR assays were performed as previously described (Ding et al, 2013). Briefly, SCC cells were sequentially treated with dimethyl 3,3′-dithiobispropionimidate-HCl (DTBP; Cat #20665, Thermo Fisher Scientific) solution and formaldehyde, and harvested with a cell scraper. The cell pellet was lysed with ChIP lysis buffer and sonicated to generate 200-500 bp DNA fragments with a sonicator. The fragmented chromatins were immunoprecipitated with anti-BMI1 (Cell Signaling Technology, Cat #6964), anti-Ubiquityl-Histone H2A (Lys119) (Cell Signaling Technology, Cat #8240) overnight at 4° C. The precipitated DNA-chromatin products were purified with ChIP DNA clean & concentrator kit (Cat #D5205, Zymo Research) and the DNA levels were quantified by qPCR. Data is presented as the percentage of input DNA.

SCC23 cells = experiment: qRT-PCR of ATM, DNA-PKcs, MRE11, JUN, FOSL1, MMP3, MMP9 in SCC23 cells; assay type: cell-based, human
Method: as §4

pH2A.X = experiment: DNA damage in SCC23 and SCC1 cells (pH2A.X, alkaline comet assay); assay type: cell-based, human
Method: as §3
Single cell gel electrophoresis comet assays were performed using the SCGE assay Kit (Enzo Life Sciences, Cat #ADI-900-166). Following the treatment, cells were mixed with low melting point agarose at a volume ratio of 1:50, and 100 μl of aliquots were loaded onto pre-warmed slides. Slides were incubated in pre-chilled lysis solution for 1 h and then in pre-chilled alkaline solution for 1 h. Electrophoresis was run at 22 V in the TBE buffer for 30 min. Comets were stained with CYGREEN dye for 30 min and imaged. 50 individual cells at least per sample were evaluated in duplicates by the CASP Version 1.2.2 analysis tool.

cytosolic dsDNA = experiment: Cytosolic dsDNA staining (PicoGreen/MitoTracker); assay type: cell-based, human; conditions: SCC23 and SCC1 cells
Method: Following the treatment, SCC23 and SCC1 cells were incubated with culture media containing PicoGreen (dsDNA stain, 200-fold dilution, Thermo Fisher Scientific, Cat #P11496) and MitoTracker ([…], 100 nM, Thermo Fisher Scientific, Cat #M7512). One hour after incubation, cells were fixed with 4% paraformaldehyde for 10 min. Cells were then washed twice with PBS and stained with DAPI (Sigma-Aldrich, Cat #D9542) and mounted with SlowFade Antifade Reagents (Thermo Fisher Scientific, Cat #536937). Staining was imaged and assessed using a Leica SP5X laser scanning confocal microscope.

BMI1 [8] = experiment: Western blot of BMI1 and H2AUb in SCC23 and SCC1 cells; assay type: cell-based, human
Method: Human SCC23 and SCC1 cells were grown in DMEM containing 10% FBS and antibiotics (streptomycin and penicillin) at 37° C. in a 5% CO2 atmosphere. To generate lentiviruses, scramble control (shCtrl, Addgene, Cat #1864; see Sarbassov et al Science 2005 Feb. 18; 307(5712):1098-101) and BMI1 specific shRNA lentiviral plasmids (shBmi1, Sigma-Aldrich, Cat #TRCN0000020156, comprising […], SEQ ID NO:35) were transfected into HEK293T cells with two helper plasmids psPAX2 (Addgene, Cat #12260) and pMD2.G (Addgene, Cat #12259). Viral supernatant was harvested 72 h after transfection and passed through a 0.45 μm filter to remove cell debris and live cells. Collected lentiviruses were used directly to infect cells with the addition of polybrene (Sigma-Aldrich, Cat #H9268), or frozen at −80° C. for later use. […]
as §2, with “#4906845001).” for “#4906845001). Protein extracts were resolved on a 10% or 15% SDS polyacrylamide gel and then transferred to a polyvinylidene difluoride membrane. Membranes were blocked with 5% milk for 1 h and incubated with primary antibodies overnight at 4° C.”

[9] = given concurrently with PTC209 plus anti-PD1

BMI-1, sequence (P35226 whole entry, species assumed): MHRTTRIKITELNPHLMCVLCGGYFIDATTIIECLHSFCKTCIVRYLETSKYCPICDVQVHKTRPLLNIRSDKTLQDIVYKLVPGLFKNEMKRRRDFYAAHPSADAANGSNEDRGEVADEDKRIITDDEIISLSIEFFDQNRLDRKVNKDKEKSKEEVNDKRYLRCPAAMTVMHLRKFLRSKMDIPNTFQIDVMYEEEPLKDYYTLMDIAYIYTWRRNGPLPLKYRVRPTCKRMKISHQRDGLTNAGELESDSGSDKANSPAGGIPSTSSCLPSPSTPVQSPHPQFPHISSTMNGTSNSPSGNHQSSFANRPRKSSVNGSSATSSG
BMI-1, sequence (Q06587 whole entry partner, species assumed): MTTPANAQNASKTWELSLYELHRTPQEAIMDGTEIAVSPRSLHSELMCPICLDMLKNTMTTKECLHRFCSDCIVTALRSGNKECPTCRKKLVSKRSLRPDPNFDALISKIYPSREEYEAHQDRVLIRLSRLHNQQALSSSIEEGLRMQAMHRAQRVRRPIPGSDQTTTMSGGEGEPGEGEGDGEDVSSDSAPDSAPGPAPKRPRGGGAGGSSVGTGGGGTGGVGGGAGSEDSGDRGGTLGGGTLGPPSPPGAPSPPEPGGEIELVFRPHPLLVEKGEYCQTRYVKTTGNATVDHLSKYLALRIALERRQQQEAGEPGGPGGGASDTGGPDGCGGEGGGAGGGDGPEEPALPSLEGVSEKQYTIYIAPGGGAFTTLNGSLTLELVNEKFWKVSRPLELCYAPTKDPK

Compound: O=C1C(=Cc2cccnc2)C(=O)c2ccccc21 [PRT4165, 2-(3-pyridinylmethylene)-1H-indene-1,3(2H)-dione]
- IC50 (BMI-1): 3.9 µM

Compound: Cc1nc2ccc(F)cc2n1-c1nc(N)c(F)c(Nc2ccc(C(F)(F)F)cc2)n1 [PTC596, 5-fluoro-2-(6-fluoro-2-methyl-1H-benzimidazol-1-yl)-N-[4-(trifluoromethyl)phenyl]pyrimidine-4,6-diamine]
- tolerability [1]: tolerable with manageable gastrointestinal side effects

Compound: Cc1ccc(-c2ccc3c(c2)C=C(C(=O)Nc2ccc(C[N+](C)(C)C4CCOCC4)cc2)CCC3)cc1.[Cl-] [TAK779]
- apoptosis in HNSCC (HNSCC tumor cells): attenuated apoptosis in HNSCC
- BMI1+ CSCs in HNSCC (strong BMI1 staining) (BMI1+ CSCs [2]): does not affect CSCs in HNSCC
- CD8+ T cells infiltration in HNSCC (CD8+ T cells; [9]): significantly abrogated CD8+ T cells infiltration in HNSCC
- HNSCC growth (histological analysis) (HNSCC; [9]): significantly reversed the inhibition of HNSCC growth
- visible lesion areas (HNSCC; [9]): significantly restored visible lesion areas
- lymph node metastasis of HNSCC [3]: significantly lessened the inhibition of lymph node metastasis

Compound: N.N.[Cl][Pt][Cl] [cisplatin]
- BMI1+ CSCs in HNSCC (in vivo labeling) (BMI1+ CSCs [4]): significantly enriched BMI1^+ CSCs
- CD8+ T cell infiltration in HNSCC (CD8+ T cells; 4NQO-induced HNSCC, treated 4 weeks): did not significantly increase CD8+ T cell infiltration
- Bmi1 expression in Tomato+ CSCs (MFI of BMI1 staining) (BMI1 [5]): induces Bmi1 expression in Tomato^+ CSCs
- lesion surface areas (HNSCC; 4NQO-induced HNSCC, Bmi1CreER;RosatdTomato mice, treated 4 weeks): reduced the lesion surface areas

Compound: shBMI1: BMI1 specific shRNA lentiviral plasmids (Sigma-Aldrich, Cat #TRCN0000020156), SEQ ID NO:35 (CCGGCCTAATACTTTCCAGATTGATCTCGAGATCAATCTGGAAAGTATTAGGTTTTT)
- phosphorylation of STING (S366), TBK1 (S172) and IRF3 (S396) ([6]; SCC1 cells): induction of phosphorylation of STING (S366), TBK1 (S172) and IRF3 (S396) in SCC1 cells
- phosphorylation of STING (S366), TBK1 (S172) and IRF3 (S396) ([6]; SCC23 cells): induction of phosphorylation of STING (S366), TBK1 (S172) and IRF3 (S396) in SCC23 cells
- IFNβ mRNA expression (IFNβ): induction of IFNβ mRNA expression in SCC23 cells
- levels of BMI1 on the promoters of CCL5, CXCL9, CXCL10 and CXCL11 [7]: reduction of BMI1 occupied on the promoters of CCL5, CXCL9, CXCL10, and CXCL11 in SCC23 cells
- levels of H2AUb marks on the promoters of CCL5, CXCL9, CXCL10 and CXCL11 [7]: reduction of H2AUb levels on the promoters of CCL5, CXCL9, CXCL10, and CXCL11 in SCC23 cells
- ATM, DNA-PKcs, and MRE11 mRNA expression (SCC23 cells): does not affect the expression of ATM, DNA-PKcs, and MRE11
- JUN, FOSL1, MMP3, and MMP9 mRNA expression (SCC23 cells): does not change the expression of JUN, FOSL1, MMP3, and MMP9 significantly
- Olive tail moment (pH2A.X; alkaline comet assay): significantly increased the Olive tail moment in SCC23 and SCC1 cells
- pH2A.X (pH2A.X; immunostaining and Western blot): increased pH2A.X in SCC23 and SCC1 cells
- accumulation of cytosolic dsDNA (cytosolic dsDNA): induced the accumulation of cytosolic dsDNA
- BMI1 and H2AUb levels (BMI1 [8]): reduced the expression of BMI1

Source: patent US20230233566A1, “INHIBITION OF BMI1 ELIMINATES CANCER STEM CELLS AND ACTIVATES ANTITUMOR IMMUNITY” (The Regents of the University of California, priority 2020, published 2023)
